Structure (SMILES)	melting point
CN=C(NC#N)NCC(O)COc1cccc(CN2CCCCC2)c1 (stereo not drawn)	45 to 47 °C
COC(=O)c1ccccc1NC1C=CC(=O)O1 (stereo not drawn)	172 to 173 °C
C=C(C)c1cccc(C(C)(C)NSc2nc3ccccc3s2)c1	93 to 95 °C
CC(=O)Nc1ccnn(C)c1=O	152 to 153 °C
O=C1COc2cc(C(O)(C(F)(F)F)C(F)(F)F)ccc2N1	224 to 225 °C
CNC(=O)C(Cc1ccc(OC)cc1)NC(=O)C(CC(C)C)C(CC(=O)OC(C)(C)C)SC(C)=O (stereo not drawn)	147 to 151 °C
O=C(N(CCCc1ccncc1)Cc1ccccc1)N(CCCc1ccccc1)C1CCCCC1	107 to 112 °C
CS(=O)(=O)c1c(F)nc(F)nc1F	103 to 105 °C
O=[N+]([O-])c1cnc(-c2nc3ccccc3[nH]2)n1CCO	217 to 219 °C
COc1ccc(Cn2ccnc2S)cc1Br	188 °C
CCc1ccc(-c2ccccc2)cc1O	62 to 65 °C
CC(C)(C)c1ccc(CCN2C(=O)COc3ccc(C=C4SC(=S)NC4=O)cc32)cc1	283 to 285 °C
CCCc1c(SCCCOc2ccc(C(C)O)c(OCCCC(=O)O)c2CCC)ccc(C(C)=O)c1O (stereo not drawn)	85 to 86 °C
CCOC(=O)c1c(CN(CC)CC)nc2sc3c(c2c1-c1ccc(OC)c(OC)c1)CN(C(=O)c1ccc(Cl)cc1)CC3	91 to 92 °C
CS(=O)(=O)c1ccc(-c2cc(C(=O)c3ccncc3)sc2N2CCOCC2)cc1	128 °C
COc1nc(C(F)(F)C(F)(F)F)cc(=O)n1-c1cc(C(=O)O)c(Cl)cc1F	197 to 199 °C
COc1cc2c(Nc3cccc(Cl)c3F)ncnc2cc1OC1CCN(C(=O)CC(C)(C)O)CC1	196 to 199 °C
Cc1cc(-c2cc(C(F)(F)F)nc(-n3cnc(-c4cccc(S(N)(=O)=O)c4)c3)n2)ccc1C(F)(F)F	180 °C
C#Cc1ccc(Oc2ccc(C(=O)C(=O)c3cccc(C(=O)C(=O)c4ccc(Oc5ccc(C#C)cc5)cc4)c3)cc2)cc1	120 to 121 °C
O=c1cc2ccccc2c[nH]1	201 °C
C=CCOc1cc2c(cc1CC=C)N(CC=C(C)C)C(=O)CC2	86 to 88 °C
C=CCOc1ccc(C(=O)C=Cc2cc(OC)c(CCCCCC)c(OC)c2)cc1	77.9 to 78.2 °C
CC(=O)OC1CSC(Oc2cc(Br)cnc2F)C(OC(C)=O)C1OC(C)=O (stereo not drawn)	120 to 122 °C
COC(=O)c1cccc([N+](=O)[O-])c1-c1ccc2ccccc2c1OC	139 to 141 °C
Cc1cc(C)c(CP(=O)(c2ccccc2)c2ccccc2)c(-c2ccc(F)c(C)c2)c1	109 to 111 °C
O=C1C=CC(O)(c2cc3ccccc3n2S(=O)(=O)c2ccccc2)c2ccccc21 (stereo not drawn)	175 to 177 °C

Structure (SMILES)	melting point
COC(=O)c1scc(-c2ccccc2)c1N	64 to 66 °C
Cn1cc(C(F)(F)F)c(C(=O)O)c1F	190 to 191 °C
Cc1c(-c2cccc(C(F)(F)F)c2F)c2cccc(Cl)c2n1CCCNS(C)(=O)=O	168 °C
Cc1cc(C(=O)N(C)C)cc(N)n1	165 to 171 °C
Sc1nccn1Cc1ccc(Cl)cc1	187 to 189 °C
COc1ccc2c(c1)C13CCN(C#N)C(C2)C1CC(C)C(=O)C3 (stereo not drawn)	188 to 192 °C
O=[N+]([O-])c1ccc(-c2ccc(-c3ccc([N+](=O)[O-])cc3Cl)o2)c(Cl)c1	247 to 248 °C
COc1cc(COc2nn(-c3ccccc3)cc2C=O)ccc1OCc1coc(-c2ccco2)n1	162 to 163 °C
O=C(O)c1ccc(Cc2cc3cc(Cl)ccc3n2S(=O)(=O)c2ccc3c(c2)OCCO3)s1	196 °C
CN1CCc2ccc(O)cc2[C@@H](c2ccccc2)C1	90 to 92 °C
c1cc2[nH]ncc2nc1N1CCCCC1	217 to 218 °C
COc1cc(N)c(Cl)cc1C(=O)NCC1CCN(CCC(=O)c2ccc(O)cc2)CC1	191 to 193 °C
CSc1cccc(C(=C2CN(C(c3ccccc3)c3ccccc3)C2)S(C)(=O)=O)c1	146 °C
CC(=N)NS(=O)(=O)C=Cc1ccccc1[N+](=O)[O-]	175 to 178 °C
CC(C)(CN)Cc1ccc(CC(C)(C)CN)cc1	53 to 56 °C
COc1cc2nc(N3CCOCC3)n3cnnc3c2cc1OC	216 to 218 °C
Clc1cccc(-c2nc(-c3ccc4c(c3)OCO4)c(-c3ccc4c(c3)OCO4)[nH]2)c1Cl	198 °C
Cc1ccc(CS(=O)c2nc3cc4c(cc3[nH]2)OC(F)(F)O4)nc1 (stereo not drawn)	206 to 208 °C
C[C@H]1[C@H](NC(=O)OC(C)(C)C)C(=O)N1OCc1ccccc1	78 °C
O=C(COc1cc(C(=O)O)c(O)c2ccccc12)c1ccccc1	120 to 121 °C
COc1ccc(C(=O)C=Cc2cccc([N+](=O)[O-])c2)c(OC)c1OC	130 to 131 °C
COc1ccc(C(OC(C)=O)c2sccc2C=O)cc1OC (stereo not drawn)	91 to 92 °C
O=C1c2ccccc2C(=O)N1CCNCCCO	94 to 95 °C
Cc1cc2c(-c3cccc(/C=C/C(=O)O)c3)c(CC(=O)Nc3ccc(Cl)cc3C(F)(F)F)c(=O)oc2cc1Cl	191 to 194 °C
CS(=O)(=O)Nc1cccc(Nc2nc(N3CCN(c4ccncc4)CC3)c3nc[nH]c3n2)c1	227 to 230 °C
CCNc1ncccc1-c1sccc1-c1cccnc1F	86 to 89 °C

Structure (SMILES)	melting point
CC(C)[Si](C)(C)CCCSCCCNC(=O)n1cc(F)c(=O)[nH]c1=O	101 to 102 °C
CC(=O)c1c(O)c(C(C)=O)c(C(C)=O)c2c1Oc1cc(O)ccc1N2	208 °C
O=C(Nc1ccc(C(=O)O)cc1)OCc1nccn1-c1cc2cc(C(=O)O)c(=O)[nH]c2cc1Cl	249 to 251 °C
O=C(OCC1CC1)c1ccc(OCCC2CCN(c3ccc(Cl)nn3)CC2)cc1	134 °C
NC(=O)c1snnc1C1CC1	163 °C
COC(=O)C1=C(C)NC(C)=C(C(=O)OCCN2CCN(c3cccc(Cl)c3)CC2)C1c1cccc([N+](=O)[O-])c1 (stereo not drawn)	65 to 68 °C
O=C(O)C1=Cc2cc(Cl)c(Oc3ccccn3)cc2OC1C(F)(F)F (stereo not drawn)	234 to 235 °C
COc1cc(C(C)(C)C)c(O)c(C(=O)Nc2ccc(S(=O)(=O)C(F)(F)F)cc2Cl)c1C	121 to 122 °C
Nc1ccc(C2=NN3C(=O)OCC3Cc3cc4c(cc32)OCO4)cc1 (stereo not drawn)	173 to 175 °C
O=C(O)[C@H]1CCCN1C(=O)C(F)(F)F	48 to 51 °C
CCOCC1(O)c2ccccc2CCc2cc(OC)c(OC)cc21 (stereo not drawn)	98 to 100 °C
COP(=O)(Cc1ccc(-c2ccccc2)cc1)OC	70 to 71 °C
CC(C)(Cc1ccc(Cl)cc1)C(O)(COc1ccc(Cl)cc1)c1cccnc1 (stereo not drawn)	46 to 47 °C
CCCC(=O)c1c[nH]c2ccc(OC)cc2c1=O	252 to 254 °C
COC(=O)CNC(=O)CC(=O)CBr	76 to 77 °C
O=C1CNCCN1c1ccc([N+](=O)[O-])cc1	150 to 153 °C
O=C(O)/C=C/c1ccc(-c2nc3c([nH]2)c(=O)n(CC2CCCCC2)c(=O)n3CC2CCCCC2)s1	> 300 °C
O=C(O)C1CSC(C2CCCCC2)=NN1C(=O)CCS (stereo not drawn)	95 to 97 °C
NC(=S)Nc1ccccc1-c1ccc(F)cc1	140 to 142 °C
C=CC[C@H]1CC(C(=O)O)=C[C@@H](OC(CC)CC)[C@@H]1NC(C)=O	229 to 230 °C
COC(=O)c1n[nH]c2nc(N3CCN(C)CC3)ccc12	230 to 231 °C
Fc1ccccc1CSc1nc2cnccc2[nH]1	186 to 188 °C
CCOCn1c(Oc2cc(C)cc(C)c2)c(CC)c(=O)[nH]c1=O	139 to 140 °C
CCCCNC(=O)c1c(N)cc(Cl)cc1Cl	92 to 98 °C
FC(F)(F)Oc1ccc(-n2cnc(-c3ccc(CBr)cc3)n2)cc1	124 to 126 °C
COc1cc2cccc(OC)c2cc1C(=O)O	151 to 153 °C

Structure (SMILES)	melting point
CCCCNc1c(CO)cnc2c1cnn2CC	60 to 72 °C
COc1cc(F)ccc1Nc1ccc2c(c1)OCc1cc([N+](=O)[O-])ccc1C2=O	222 °C
CCNc1ccc2c(c1)N1CCN=C1S2	239 to 246 °C
CCN(CC)C(=O)c1cc2cc(OC)c(OC)cc2c(-c2ccccc2)n1	134 °C
CC1(c2ccccc2)CN(c2ccnc(NC(=O)NCc3ccccn3)c2)C(=O)O1 (stereo not drawn)	194 to 195 °C
CCN(CC)c1ccc(C=CC(=O)C=Cc2ccc(N(CC)CC)cc2)cc1	168 °C
Cc1ccc(-c2cccc(/C=C/C(=O)Nc3ccc(CN4CCCCC4CO)cc3)c2)cc1 (stereo not drawn)	137 to 139 °C
O=C1C=CC2=C(C1CC1CC1)n1ccc3c1=C(CCC=3)c1nncn12 (stereo not drawn)	99 °C
CC(C)NC(Nc1cc(C(F)(F)F)cc(C(F)(F)F)c1)=C(C#N)S(=O)(=O)c1ccc(Cl)cc1	197 to 198 °C
COc1ccc(NC(=O)c2ccc(OC)c3oc4ccc(NC(C)=O)cc4c23)cc1	285 °C
CN1Cc2c(C(=O)NN)ncn2-c2ccsc2C1=O	> 260 °C
Brc1ncccc1-c1cccnc1	97 to 98 °C
CC(C)n1nc(-c2cc(C(C)(C)C)c(O)c(C(C)(C)C)c2)c2cccnc21	147 °C
CC(O)c1nccc2c1CCCC2 (stereo not drawn)	60 to 61 °C
O=[N+]([O-])c1ccc(Sc2ccc(O)c(Cl)c2Cl)cc1	204 °C
Cc1ncc(C(=O)N2CCC(=O)CC2)c(C)n1	116 °C
CC(C)(C)C#CC(=O)C#CC(C)(C)C	62 to 63.5 °C
OC1(c2ccc(Br)cc2)c2ccccc2C2=NCCN21 (stereo not drawn)	194 to 196 °C
c1ccc(C2=Nc3ccccc3N3CCc4cccc2c43)cc1	141 to 143 °C
CN(C)c1cc(Oc2cccc(C(F)(F)F)c2)nc(C(=O)O)c1	61 to 66 °C
O=C1O[C@H](C(O)O)CCN1Cc1ccccc1	120 °C
Nc1nc(Cl)c(N)c(NCCO)n1	164 to 167 °C
Cc1n[nH]c2cc(F)ccc12	116 to 117 °C
COc1cn(-c2ccc(N3CC(F)(F)C3)cc2F)nc(-c2ccnn2-c2ccccc2)c1=O	204 to 206 °C
CNC(=S)N(C)Cc1ccc(Br)nc1	107 to 108 °C

Reference: a melting point compilation (Tetko et al.; mined from patent text by program, amines drawn as free bases though some values may be those of a salt)
